Consider 69 compounds from PubChem BioAssay AID179 (DTP/NCI, 2004).

Active and inactive are the calls of the source.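 The calls were made as follows: active = compounds giving half or more protection of infected cells from virus-caused growth loss, again on retest; inactive = the rest.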

This assay relates to CEM cells HIV-1 protection, formazan growth assay. Briefly: NCI AIDS Antiviral Assay. The note with it: for IC50: measured here: growth of uninfected CEM cells. The method in brief:
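Five concentrations of each compound were applied to infected and uninfected human CEM cells. Protection from HIV-1 was judged from growth measured with a soluble formazan assay.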

In general, EC50 refers to the concentration at which the effect is half-maximal. In general, IC50 refers to the concentration that gives 50% inhibition. Higher therefore signals a need for much substance. As to `S=C1NC(c2ccccc2)Nc2ccccc21` (stereo not drawn), the EC50 was above 107 µM and the IC50 is above 107 µM.
For the compound `COc1cc2c(cc1OC)C(=O)C1(C2)[C@H](c2ccccc2)C2C(=O)c3cc(OC)c(OC)cc3C2[C@H]1c1ccccc1` (stereo partly drawn), the EC50 was above 200 µM and the half-inhibitory concentration (IC50) was above 200 µM.
`CC1COS(=O)N1c1ccccc1` (stereo not drawn): the EC50 was above 479 µM and the IC50 was above 479 µM.
Regarding `OCC[P+](c1ccccc1)(c1ccccc1)c1ccccc1`, the EC50 is above 200 µM and the IC50 amounted to 12.3 µM.
Take `CCCc1cc(=O)oc2c3c(c4c(c12)OC(C)(C)CC4)O[C@H](C)C(C)C3O` (stereo partly drawn): the EC50 is above 200 µM and the 50% inhibitory concentration (IC50) was 25.1 µM.
Turning to `O=C1NC(=S)N/C1=C\c1ccc(Sc2ccccc2C(=O)O)s1`, the EC50 was above 200 µM and the IC50 was found to be 110 µM.
On to `CC12CO[C@@](C)(CC(S(=O)(=O)c3ccccc3)C1)O2` (stereo partly drawn), for which the EC50 is above 178 µM and the half-inhibitory concentration (IC50) was above 178 µM.
Take `N#CNc1nc(C(=O)Nc2ccc(Cl)cc2)cc(-c2ccccc2)n1`: the EC50 is above 355 µM and the IC50 was above 355 µM.
On to `C[CH2][Sn]([CH2]C)([S]CCS(=O)(=O)O)[S]CCS(=O)(=O)O` (tested in a mixture with another compound), for which the EC50 is above 200 µM and the concentration for half-maximal inhibition (IC50) is 3.16 µM.
On to `Cn1c(/C=N/NC(=O)c2ccc(C(=O)N/N=C/c3c[n+]4ccccc4n3C)cc2)c[n+]2ccccc12`, for which the EC50 is 35.5 µM and the IC50 turned out to be 43.7 µM.
Consider `C=CCc1ccc(Oc2cc(CC=C)c3c(c2O)O[C@@H](CO)[C@H]3c2ccc(O)c(-c3cc(CC=C)ccc3O)c2)cc1`, for which the EC50 is above 100 µM and the IC50 is above 100 µM.
Take `c1ccc2c(c1)c1c(n2CCOCCN2CCOCC2)CCCC1`: the EC50 is above 200 µM and the half-inhibitory concentration (IC50) worked out at 112 µM.
`Cc1[nH]nc2c1C(=O)C=C(N(CCO)c1ccccc1)C2=O`: the result was inactive.
Consider `CC1(CO)COC(=O)C(C)(C2(C)NC(C)(CO)COC2=O)N1` (stereo not drawn), for which the EC50 is above 794 µM and the IC50 worked out at 28.2 µM.
For the compound `OCC1OC(c2ccccc2)CC1O` (stereo not drawn), the EC50 is above 200 µM and the half-inhibitory concentration (IC50) was above 200 µM.
On to `CN1C=COC1N=C1CCCCC1` (stereo not drawn), for which the EC50 was above 200 µM and the half-maximal inhibitory concentration (IC50) was above 200 µM.
Regarding `CC(C)/C(Cl)=N/OC(=O)Nc1ccc(Cl)c(Cl)c1`, the EC50 is above 20 µM and the IC50 worked out at 3.16 µM.
`Cc1ccc(S(=O)(=O)N2CCSCCSCCN(S(=O)(=O)c3ccc(C)cc3)CCN(S(=O)(=O)c3ccc(C)cc3)CC2)cc1`: the EC50 is above 14.1 µM and the IC50 was above 14.1 µM.
For the compound `CCCCN(CCCC)C(=Nc1ccccc1)N(CCCC)CCCC`, the EC50 was above 138 µM and the IC50 was found to be 24 µM.
On the same counts, the results for `O=c1c2cc([N+](=O)[O-])ccc2n2n1CCCCC2` are above 200 µM and above 200 µM.
Turning to `CCOC(=O)OC(=S)N(C1CCCCC1)C1CCCCC1`, the EC50 is above 200 µM and the IC50 worked out at 97.7 µM.
In the case of `COc1cc2c(c3oc4c(c(=O)c13)CCCC4)CCC(C)(C)O2`, the EC50 was above 56.2 µM and the IC50 was determined as 23.4 µM.
On the same counts, the results for `COC1/C=C/OC2(C)Oc3c(C)c(O)c4c(O)c(c(C=Nc5cccc(C)c5)c(O)c4c3C2=O)NC(=O)C(C)=C/C=C/C(C)C(O)C(C)C(O)C(C)C(OC(C)=O)C1C` (stereo not drawn) are above 174 µM and 28.8 µM.
On the same counts, the results for `Nc1nccc(CCc2ccccc2)n1` are above 36.3 µM and above 36.3 µM.
Consider `CCCC[N+](CCCC)=c1cc(-c2ccc(Cl)cc2)ss1`, for which the EC50 was above 20 µM and the IC50 is 0.708 µM.
As for `Cc1cc(Cl)c2c(c1)C(=N/O)/C(=C\c1ccco1)O2`, the EC50 was above 200 µM and the half-maximal inhibitory concentration (IC50) amounted to 10.2 µM.
On the same counts, the results for `COc1cc2c(cc1OC)[C@@](C)(C(O)C(O)C(C)(C)O)NCC2` (stereo partly drawn) are above 200 µM and above 200 µM.
Turning to `COc1ccc(OC)c(NC(=O)CCC/C(CC(=O)c2ccc(O)c(OC)c2)=N\Nc2ccc([N+](=O)[O-])cc2)c1`, the EC50 was above 13.2 µM and the concentration for half-maximal inhibition (IC50) is above 13.2 µM.
Turning to `Cc1ccc(-c2c(C#N)c(-c3ccc(Cl)cc3)c(C#N)c(=O)n2NS(=O)(=O)c2ccc(C)cc2)cc1`, the EC50 was above 200 µM and the half-maximal inhibitory concentration (IC50) is 20.9 µM.
On to `COC(=O)/C(=C\c1ccc(N(CCC#N)CCC#N)cc1)NC(=O)c1cc([N+](=O)[O-])ccc1Cl`, for which the EC50 is above 74.1 µM and the IC50 was above 74.1 µM.
On to `COC(=O)NN=C(c1ccc(Cl)cc1)c1ccc(Cl)cc1`, for which the EC50 was 35.5 µM and the IC50 amounted to 174 µM.
Taken in the same sequence, the figures for `CCCCCCCCCCCCCCCCCCSCC(COP(=O)(O)OP(=O)(O)OCC1OC(n2ccc(=O)[nH]c2=O)CC1N=[N+]=[N-])OC(=O)CCCCCCCCCCCCCCC` (stereo not drawn) were above 209 µM and 186 µM.
As to `CC1(C)O[C@@H]([C@H](O)CO)[C@H](O)[C@@H](C2SCCCS2)O1`, the EC50 was above 200 µM and the IC50 is above 200 µM.
Consider `O=c1[nH]nc(Cc2ccccc2)n1/N=C/c1cccnc1`, for which the EC50 is 56.2 µM and the concentration for half-maximal inhibition (IC50) was above 200 µM.
Regarding `Cc1cn(C2CC(N=[N+]=[N-])C(COC(=O)C(O)[C@@]3(O)CC[C@H]4[C@@H]5CCC6=CC(=O)C=C[C@]6(C)[C@H]5[C@@H](O)C[C@@]43C)O2)c(=O)[nH]c1=O` (stereo partly drawn), the EC50 was 0.708 µM and the IC50 was above 200 µM.
On to `Clc1ccccc1-c1nc2ccc(C34CC5CC(CC(C5)C3)C4)cc2[nH]1`, for which the EC50 was above 200 µM and the IC50 worked out at 162 µM.
On to `NNC(=O)Cn1c2ccc(Br)cc2c2nc3ccccc3nc21`, for which the EC50 is above 200 µM and the IC50 is 28.2 µM.
For the compound `C=CC[P@@]1(=O)O[C@H](c2ccccc2)C(C)N1C(C)C` (stereo partly drawn), the result was inactive.
With `CCOC(=O)C[C@@H](C)[C@]1(C(=O)OC)CCCC1=O`, the EC50 was above 708 µM and the 50% inhibitory concentration (IC50) was above 708 µM.
Take `CN(C)CCCN1C(=S)N(CCCN(C)C)c2c3ccccc3nc3c([N+](=O)[O-])ccc1c23`: the EC50 was 0.407 µM and the half-maximal inhibitory concentration (IC50) worked out at 1.07 µM.
On to `NC(=O)c1nnsc1NC=O`, for which the EC50 is above 200 µM and the IC50 is above 200 µM.
`CC(C)(C)c1cc(C(=O)/C=C/c2ccccc2)cc(C(C)(C)C)c1O`: the EC50 is above 21.4 µM and the IC50 was above 21.4 µM.
As to `O=C(Cn1c2ccc(Br)cc2c2nc3ccccc3nc21)Nc1ccccc1`, the EC50 is above 100 µM and the IC50 was above 100 µM.
Regarding `COC(=O)CCC(=O)CC(=O)C1=NS(=O)(=O)c2nc(S(N)(=O)=O)c(Cl)cc2N1`, the EC50 is 0.38 µM and the concentration for half-maximal inhibition (IC50) was 550 µM.
As for `CC(CCOc1c2ccoc2cc2oc(=O)ccc12)C1=CC(=O)C(C)(C)O1` (stereo not drawn), the EC50 was above 200 µM and the half-maximal inhibitory concentration (IC50) was above 200 µM.
On to `O=C1CCCCCCCCCCCC(=O)OCCO1`, for which the EC50 was above 132 µM and the IC50 is above 132 µM.
`Nc1nc2sc3ccccc3c(=O)n2n1`: the EC50 was above 91.2 µM and the concentration for half-maximal inhibition (IC50) was above 91.2 µM.
As for `S=C1CC(c2ccc(Cl)cc2)Sc2ccccc2N1` (stereo not drawn), the EC50 is above 200 µM and the IC50 was 138 µM.
Regarding `O=P1(Nc2ccccc2)NCCCO1` (stereo not drawn), the EC50 is above 200 µM and the half-maximal inhibitory concentration (IC50) was above 200 µM.
Take `CC(C)(C)OC/C=C1\C(=O)O[C@H]2C[C@@H](O[Si](C)(C)C(C)(C)C)C[C@@H]12`: the EC50 was above 200 µM and the IC50 stood at 39.8 µM.
As for `c1ccc(C2C3=C(Nc4ncnn42)c2ccccc2C3)cc1` (stereo not drawn), the EC50 was above 12.6 µM and the concentration for half-maximal inhibition (IC50) is 7.24 µM.
Regarding `Nc1ncnc2c1ncn2C1OC(COP(=O)(O)CP(=O)(O)O)C(O)C1O` (stereo not drawn), the EC50 was above 200 µM and the concentration for half-maximal inhibition (IC50) is above 200 µM.
Consider `CCOC(C)C(=O)OC[C@@H](C(=O)OC1C[C@@H]2[C@@H]3O[C@@H]3[C@H](C1)[N+]2(C)C)c1ccccc1` (stereo partly drawn), for which the EC50 is above 200 µM and the 50% inhibitory concentration (IC50) was above 200 µM.
For the compound `COc1ccc(CC2C(=O)NC(C)C(=O)N(C)C3C(=O)N(C)C(Cc4ccc(O)c(c4)Oc4ccc(cc4)C3O)C(=O)NC(C)C(=O)NC(C)C(=O)N2C)cc1` (stereo not drawn), the EC50 was above 0.2 µM and the concentration for half-maximal inhibition (IC50) was 0.0631 µM.
In the case of `O=C(/C=C\c1ccccc1O)c1ccc(O)cc1O`, the EC50 is above 72.4 µM and the IC50 worked out at 7.24 µM.
With `CN(C)C(CN)CC1=C(CC(CN)N(C)C)CCC1` (stereo not drawn), the outcome was inactive.
Consider `CNc1ncnc2c1ncn2C1OC(CO)C(O)C1O` (stereo not drawn), for which the result was inactive.
Take `C=C1CC(c2ccc(O)c(OC)c2)Oc2c(OC)cccc21` (stereo not drawn): the EC50 was above 316 µM and the IC50 amounted to 32.4 µM.
As to `Cc1ccccc1C(C#N)/C(=N/NC(=O)C(=O)NN)C(=O)Nc1cccc(C(F)(F)F)c1` (stereo not drawn), the EC50 was above 209 µM and the concentration for half-maximal inhibition (IC50) was above 209 µM.
For `Oc1ccc(-c2nc(-c3cccnc3)c(-c3ccc(F)cc3)[nH]2)cc1`, the EC50 was above 200 µM and the IC50 was 30.9 µM.
On the same counts, the results for `COc1cc(OC)c(Oc2cccc(OC)c2OC)c(OC)c1` are above 16.2 µM and above 16.2 µM.
Regarding `O=C(CNN1C(=O)CSC1=Nc1cccc2ccccc12)c1cccc2c1Nc1ccccc1S2`, the outcome was inactive.
Turning to `O=C(OCCN1CCCCC1)c1cc2ccccc2n1Cc1ccccc1`, the EC50 is above 200 µM and the IC50 was 30.2 µM.
As to `CC1(C)C2CCC1(C)[C@H](O)[C@H]2Nc1cc(C(F)(F)F)cc(C(F)(F)F)c1` (stereo partly drawn), the EC50 is above 20 µM and the IC50 is 0.513 µM.
For the compound `CC(=O)c1c2c(cc3c1CC1(Cc4cc5c(cc4C1)C(=O)CCC5)C3)CCCC2` (stereo not drawn), the EC50 was above 200 µM and the 50% inhibitory concentration (IC50) stood at 3.63 µM.
`Cc1ccsc1C(=S)Nc1ccc(Cl)c(/C=N/OC(C)(C)C)c1`: the EC50 is 0.141 µM and the IC50 worked out at 14.1 µM.
In the case of `C/C=C1\CN(C(=O)OC(C)(C)C)C1C(=O)OC(C)(C)C` (stereo not drawn), the EC50 is above 200 µM and the IC50 turned out to be 85.1 µM.
On the same counts, the results for `Clc1nc2cc3nc(Cl)c(Cl)nc3cc2nc1Cl` are above 50.1 µM and 33.1 µM.
In the case of `O=c1c(Cl)c(Cl)cnn1-c1ccc([N+](=O)[O-])cc1[N+](=O)[O-]`, the EC50 was above 20.4 µM and the IC50 was above 20.4 µM.
